According to the supplement of paper PMC10307832:

Assays:
Experiment in all cases: relative viability (nuclei count vs DMSO), 5 days (fraction); higher = more cells survive
[1] = compound: C1=CC(=CC=C1NC(=S)NNC2=C(C=C(C=C2[N+](=O)[O-])C(F)(F)F)[N+](=O)[O-])F [Kobe2602] + CCNC(=O)c1noc(-c2cc(C(C)C)c(O)cc2O)c1-c1ccc(CN2CCOCC2)cc1 [Luminespib] (partner 0.01 µM)
Procedure, shortened: (§1)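 Values are medians from duplicate plates. Each reflects relative viability, defined as the nuclei count of treated wells over that of vehicle wells. Lung cancer cell lines in 1536-well plates were pin-tool dosed one day after seeding with one drug alone or with a fixed anchor-drug dose plus five library-drug doses (not always all listed) in √10 steps, then fixed, stained and imaged at 4× after 5 days.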

[2] = compound: COc1cc2nccc(Oc3ccc(NC(=O)C4(C(=O)Nc5ccc(F)cc5)CC4)cc3)c2cc1OC [Cabozantinib] + Cc1cc(Nc2cc(N3CCN(C)CC3)nc(Sc3ccc(NC(=O)C4CC4)cc3)n2)n[nH]1 [Tozasertib] (partner 0.1 µM)
Procedure, shortened: as §1

[3] = compound: COc1cc2nccc(Oc3ccc(NC(=O)C4(C(=O)Nc5ccc(F)cc5)CC4)cc3)c2cc1OC [Cabozantinib] + N=C(N)NC(=N)NCCc1ccccc1 [Phenformin] (partner 250 µM)
Procedure, shortened: as §1

[4] = compound: COc1cc2nccc(Oc3ccc(NC(=O)C4(C(=O)Nc5ccc(F)cc5)CC4)cc3)c2cc1OC [Cabozantinib] + NC(=O)Nc1cc(-c2cccc(F)c2)sc1C(=O)N[C@H]1CCCNC1 [AZD7762] (partner 0.2 µM)
Procedure, shortened: as §1

Cell Line	relative viability ([1]; first compound 0.2 µM)	relative viability ([1]; first compound 0.6325 µM)	relative viability ([1]; first compound 2 µM)	relative viability ([1]; first compound 6.325 µM)	relative viability ([1]; first compound 20 µM)	relative viability ([2]; first compound 0.02 µM)	relative viability ([2]; first compound 0.06325 µM)	relative viability ([2]; first compound 0.2 µM)	relative viability ([2]; first compound 0.6325 µM)	relative viability ([2]; first compound 2 µM)	relative viability ([3]; first compound 0.02 µM)	relative viability ([3]; first compound 0.06325 µM)	relative viability ([3]; first compound 0.2 µM)	relative viability ([3]; first compound 0.6325 µM)	relative viability ([3]; first compound 2 µM)	relative viability ([4]; first compound 0.02 µM)	relative viability ([4]; first compound 0.06325 µM)	relative viability ([4]; first compound 0.2 µM)	relative viability ([4]; first compound 0.6325 µM)	relative viability ([4]; first compound 2 µM)
NCI-H2126	0.947	0.976	0.895	0.884	0.825	0.865	0.937	0.816	0.814	0.848	0.443	0.555	0.539	0.544	0.586	0.901	1.03	0.941	0.988	1.07
NCI-H2170	0.856	0.922	0.703	0.944	0.719	0.738	0.8	0.733	0.748	0.734	0.468	0.418	0.425	0.365	0.353	0.871	0.937	0.779	0.864	1.01
NCI-H2342	0.826	0.735	0.741	0.692	0.773	0.656	0.516	0.553	0.478	0.401	0.538	0.785	0.552	0.633	0.545	0.401	0.69	0.624	0.535	0.415
NCI-H2347	0.454	0.369	0.793	–	0.756	0.572	0.526	0.575	–	0.392	0.449	0.604	0.596	–	0.318	0.748	0.889	0.668	0.378	0.444
NCI-H2405	0.674	0.694	0.73	0.771	0.719	0.743	0.856	0.777	0.789	0.667	0.335	0.46	0.484	0.39	0.418	0.687	0.918	0.769	0.68	0.655
NCI-H3122	0.074	0.0661	0.0867	0.102	0.0834	0.412	0.431	0.385	0.42	0.458	0.45	0.423	0.374	0.333	0.324	1.04	1.05	1.03	0.941	1.03
PC-3 [JPC-3]	0.746	0.799	0.713	0.748	0.649	0.928	1.04	–	0.938	0.861	0.491	0.505	–	0.457	0.462	0.633	0.888	–	0.859	0.798
PC-14	0.16	0.161	0.307	0.151	0.149	0.656	0.668	–	0.547	0.526	0.531	0.93	–	0.591	0.552	0.323	0.415	–	0.406	0.354
RERF-LC-KJ	1.12	1.17	1.2	1.03	0.515	0.588	0.51	0.505	0.438	0.412	0.442	0.404	0.44	0.418	0.413	0.811	1.06	0.963	0.946	1.01
SW 900	0.164	0.185	0.191	0.166	0.199	0.551	0.481	0.814	0.464	0.299	0.692	0.668	0.662	0.552	0.408	0.604	0.761	0.559	0.441	0.448
